Entries after “also recorded” stand apart in the source; their conditions may differ.

Broadly, the Cmax is the highest concentration seen after dosing. A word on the Tmax: it is the time at which the peak concentration occurs.

Series [1] concerns CD (Sprague Dawley) rats. The series is described as follows: Rat telemetry: heart rate, blood pressure, body temperature, activity after cumulative SC dosing. Type of series: in vivo. Particulars: for Rank Order Blood Pressures (Systolic, Diastolic, and Mean Arterial) Effects / Rank Order Body Temperature Effects / Rank Order General Activity Effects / Rank Order Heart Rate Measurement Effects: telemetry, cumulative SC dosing, dose groups stated in the value. An excerpt:
Methods. A total of 42 adult male CD® (Sprague Dawley) rats (Charles River Laboratories) were surgically implanted with DSI radiotelemetry devices by personnel at Charles River Laboratories Raleigh, NC, per their test site SOPs. Telemetry devices supported continuous recording of temperature, activity, blood pressure and heart rate. Telemeterized rats were shipped to the Charles River Laboratories testing facility (Mattawan, MI) and acclimated to the environment for at least 1 week prior to experimentation. Animals were pair-housed in solid bottom cages with nonaromatic bedding. On the dosing day, animals were singly housed and then returned to the paired cohort following the dosing/telemetry recording phase. Diet (Lab Diet® Certified Rodent Diet #5CR4) and tap water via an automatic water system were available ad libitum, except during designated procedures. Temperature and humidity were maintained according to the Testing Facility SOP. Animals were randomized into treatment groups using a standard, by weight, measured value randomization procedure. Body weight was determined for each rat prior to dosing.
As illustrated in the Table, a total of 36 rats were included in the study. The vehicle and 2 test article doses were administered in a volume of 1 mL/kg to each of 3 groups of n=12 telemeterized rats via subcutaneous injection four times on a given day, followed by neurobehavioral evaluations. This series was repeated 3 times on study. Each group received all 3 dose levels of the applicable test or control article in ascending order with a 1-week washout between dose levels.
Mortality/cage side clinical observations were conducted for all study animals at least twice daily beginning upon receipt through termination, except on days of receipt and termination where frequency was at least once daily. Detailed clinical observations were conducted for all study animals prior to each of the four cumulative doses in a series. Individual body weights were conducted for all study animals at transfer, prior to randomization, on the day of dosing on each of the 3 cycles of dosing. The body weights recorded at transfer and prior to randomization are not reported but are maintained in the study file. Veterinary care was available throughout the course of the study, and animals were examined by the veterinary staff as needed based on clinical signs or other changes. All animals were provided with HydroGel the night prior to their respective dosing days to potentially mitigate any animal welfare issues related to fluid loss/dehydration.
Telemetry monitoring was conducted for all animals 2 hours prior to dosing and through to 7.5 hours following the last (4th) cumulative dose of each series, which included continuous data collection of body temperature, activity, heart rate, and blood pressure (systolic, diastolic, and mean arterial) using telemetry.
The total period of time over which the statistical analyses were conducted encompassed the entire dosing period for all animals (i.e., Dose 1 through 7.5 hour post-4th dose) in an effort to draw conclusions regarding the effects of the dosing procedure and cumulative changes by allowing comparisons between the cumulative dosing periods. The following statistical analyses were performed for each analysis segment.
All time-series data comparisons conducted via statistical analysis are relative to the control treatment and are based on the LSMean values. Additionally, the change values used for the statistical analysis were calculated using a baseline of the 2 hours of pre-dose data, prior to the first compound injection of the series. The raw change values were analyzed.

A short description of series [2]: Rat plasma pharmacokinetics after cumulative (QID) SC injections. The note with it: for dose dependence of Cmax and AUC0-27 hr: QID SC; for AUC0-27 hr / AUC0-27 hr/Dose / AUCTlast / Cmax / Cmax/Dose / Tlast / Tmax: male rat plasma.
The mark [3] stands for this setting: maximum change, R-MDMA and racemic MDMA 10, 20 mg/kg/day, S-MDMA 5, 10 mg/kg/day, 4 hourly SC injections.
[4] abbreviates: racemic MDMA 20 mg/kg/day, S-MDMA 10 mg/kg/day, approximate.
[5] abbreviates: metabolite S-MDA after QID SC S-MDMA, total 5 mg/kg/day.
[6] abbreviates: metabolite after QID SC parent, total 10 mg/kg/day.
The mark [7] stands for this setting: metabolite after QID SC parent, total 20 mg/kg/day.

As for `CNC(C)Cc1ccc2c(c1)OCO2` (racemic) [Racemic MDMA, 3,4-methylenedioxymethamphetamine], the “hemodynamic parameters (systolic/diastolic/mean arterial blood pressures and heart rate)” value in series [1] (4 hourly SC injections, cumulative doses 5, 10, or 20 mg/kg/day) was “dose-dependent blood pressure-increasing effects”. Further, the body temperature response result in series [1] (S-MDMA 5, 10 mg/kg/day, racemic-MDMA 10, 20 mg/kg/day, 4 hourly SC injections) is recorded as “hyperthermic response”. For the same molecule, the “activity (implanted telemetry devices)” value in series [1] (all cumulative doses (5, 10, or 20 mg/kg/day)) is given as “Activity-increasing effects”. For the same molecule, in series [1] (setting [3]), the “blood pressure increase [mean arterial pressure]” value is on record as “up to +46%” and the heart rate increase result is on record as “up to +37%”. Besides, the peak body temperatures in series [1] (overall mean magnitude of change, 4 hourly SC injections) turned out to be 40.0 °C. Moreover, in series [1] (setting [4]), the “period of significantly increased body temperature compared to R-MDMA (10 mg/kg/day)” value was 1-4 hours post initiation of dosing, the “period of significantly increased heart rate compared to R-MDMA (10 mg/kg/day)” value is given as 3-10 hours post initiation of dosing, the “period of significantly increased mean arterial blood pressure compared to R-MDMA (10 mg/kg/day)” value is given as 1-3 hours post initiation of dosing and the “period of significantly increased systolic blood pressure compared to R-MDMA (10 mg/kg/day)” value is recorded as 1-3 hours post initiation of dosing. Besides, in series [1] (listed as Rac-MDMA), the “Rank Order Blood Pressures (Systolic, Diastolic, and Mean Arterial) Effects” value is “R-MDMA (20 mg/kg/day) < S-MDMA (10 mg/kg/day) < Rac-MDMA (20 mg/kg/day); also recorded: Rac-MDMA (0 mg/kg/day) < Rac-MDMA (10 mg/kg/day) < Rac-MDMA (20 mg/kg/day); also recorded: R-MDMA (10 mg/kg/day) < S-MDMA (10 mg/kg/day) < Rac-MDMA (20 mg/kg/day)”; the “Rank Order Body Temperature Effects” value was “R-MDMA (20 mg/kg/day) < S-MDMA (10 mg/kg/day) < Rac-MDMA (20 mg/kg/day); also recorded: Rac-MDMA (0 mg/kg/day) < Rac-MDMA (10 mg/kg/day) < Rac-MDMA (20 mg/kg/day); also recorded: R-MDMA (10 mg/kg/day) < S-MDMA (10 mg/kg/day) < Rac-MDMA (20 mg/kg/day)”; the “Rank Order General Activity Effects” value is “R-MDMA (20 mg/kg/day) < S-MDMA (10 mg/kg/day) < Rac-MDMA (20 mg/kg/day); also recorded: Rac-MDMA (0 mg/kg/day) < Rac-MDMA (10 mg/kg/day) < Rac-MDMA (20 mg/kg/day); also recorded: R-MDMA (10 mg/kg/day) < S-MDMA (10 mg/kg/day) < Rac-MDMA (20 mg/kg/day)”; the “Rank Order Heart Rate Measurement Effects” value is listed as “R-MDMA (20 mg/kg/day) < S-MDMA (10 mg/kg/day) < Rac-MDMA (20 mg/kg/day); also recorded: Rac-MDMA (0 mg/kg/day) < Rac-MDMA (10 mg/kg/day) < Rac-MDMA (20 mg/kg/day); also recorded: R-MDMA (10 mg/kg/day) < S-MDMA (10 mg/kg/day) < Rac-MDMA (20 mg/kg/day)”. Also, in series [1] (listed as Rac.-MDMA), the “Rank Order Blood Pressures (Systolic, Diastolic, and Mean Arterial) Effects” value was “R-MDMA (10 mg/kg/day) < S-MDMA (5 mg/kg/day) < Rac.-MDMA (10 mg/kg/day)”; the “Rank Order Body Temperature Effects” value is recorded as “R-MDMA (10 mg/kg/day) < S-MDMA (5 mg/kg/day) < Rac.-MDMA (10 mg/kg/day)”; the “Rank Order General Activity Effects” value is “R-MDMA (10 mg/kg/day) < S-MDMA (5 mg/kg/day) < Rac.-MDMA (10 mg/kg/day)”; the “Rank Order Heart Rate Measurement Effects” value is on record as “R-MDMA (10 mg/kg/day) < S-MDMA (5 mg/kg/day) < Rac.-MDMA (10 mg/kg/day)”.
For `C[C@H](N)Cc1ccc2c(c1)OCO2` [S-MDA, S(+)-MDA], the “dose dependence of Cmax and AUC0-27 hr” value in series [2] (from 5 to 10 mg/kg/day S-MDMA) is recorded as “approximately dose proportional manner”. In series [2] (from 5 to 20 mg/kg/day S-MDMA), the “dose dependence of Cmax and AUC0-27 hr” value is “greater than dose proportional manner”. Also, in series [2] (setting [5]), the AUC0-27 hr was found to be 1280 ng·h/mL, the “AUC0-27 hr/Dose” value is on record as 256 *kg*ng/mL/mg, the AUCTlast was 1270 ng·h/mL and the Cmax turned out to be 342 ng/mL. For the same molecule, in series [2] (setting [5]), the Cmax/Dose was determined as 68.4 kg·ng/mL/mg, the Tlast turned out to be 9 h and the time of peak concentration (Tmax) stood at 4 h. Moreover, the Cmax in series [2] (metabolite after QID SC parent (R-MDA after R-MDMA, S-MDA after S-MDMA, total MDA after Rac-MDMA), total 10 mg/kg/day) was found to be 957 ng/mL. Further, in series [2] (metabolite after QID SC parent (R-MDA after R-MDMA, S-MDA after S-MDMA, total MDA after Rac-MDMA), total 20 mg/kg/day), the Cmax is reported as 2500 ng/mL. In series [2] (setting [6]), the AUC0-27 hr was found to be 6770 ng·h/mL, the “AUC0-27 hr/Dose” value is listed as 677 *kg*ng/mL/mg, the AUCTlast was 5180 ng·h/mL and the Cmax/Dose was found to be 95.7 kg·ng/mL/mg. Besides, in series [2] (setting [6]), the Tlast worked out at 11 h and the Tmax stood at 5 h. Besides, in series [2] (setting [7]), the AUC0-27 hr amounted to 26300 ng·h/mL, the “AUC0-27 hr/Dose” value is reported as 1320 *kg*ng/mL/mg, the AUCTlast turned out to be 26300 ng·h/mL and the Cmax/Dose turned out to be 125 kg·ng/mL/mg. In addition, in series [2] (setting [7]), the Tlast is 27 h and the Tmax was 5 h.
